Assay results published in patent US9073820B2, “Pharmaceutical compositions comprising napthamides” (OREGON HEALTH & SCIENCE UNIVERSITY, priority 2011, dated 2015).

Experiments:
[1] = tested on: MCF-7 (human breast cancer cells); assay: MTT cell growth inhibition, 72 h, MCF-7; type: cell-based; settings: MCF7, 72 h, read-out: MCF-7 (GI50)
Method: A549 (human lung cancer cells), MCF-7 (human breast cancer cells), MDA-MB-231 (human breast cancer cells) and MDA-MB-468 cells (human breast cancer cells) were maintained in Dulbecco's modified Eagle medium (DMEM, Invitrogen, Carlsbad, Calif.) supplemented with 10% (v/v) fetal calf serum (Sigma, St. Louis, Mo.), 10 μg/mL penicillin and 10 μg/mL streptomycin (Invitrogen, Carlsbad, Calif.) at 37° C. under 5% CO2. On the day of experiment, different concentrations of the drugs (final concentration 10^−8-10^−4 M) in duplicates were added to the cells and the cells were further incubated for 72 h. Then, the number of live cells was quantified by 3-(4,5-dimethyl-2-thiazolyl)-2,5-diphenyl-2H-tetrazolium bromide (MTT reagent, Sigma, St. Louis, Mo.).
The amount of reduced MTT formazan generated by live cells was determined by its absorbance at 570 nm after subtracting the background absorbance at 690 nm. The percent of cell growth was expressed as (A570(treated)−A570(initial))/(A570(vehicle treated)−A570(initial))*100, where A570(initial) represents initial cell population when drugs are added. The GI50 were derived from non-linear regression analysis of the dose-response curve using Prism 4.0 (GraphPad). […] Data were presented as mean±SD of at least two measurements in duplicates unless noted.

[2] = tested on: CREB-mediated gene transcription; assay: CREB reporter (pCRE-RLuc) assay in HEK 293T cells, forskolin-stimulated; type: cell-based
Method: HEK293T cells in a 10-cm plate were transfected with pCRE-RLuc (6.0 μg) using Lipofectamine™ 2000 (Invitrogen, Carlsbad, Calif.) according to manufacturer's protocol. After 3 h, the transfected cells were collected and replated into 96-well plates (1-2×10^4 cells/well). The cells were allowed to attach to the bottom of the wells for overnight, when compounds of different concentrations were added to the cells. Forskolin (final concentration of 10 μM, LC Laboratories, Woburn, Mass.) was added 30 min after the addition of the compounds. The cells were then incubated at 37° C. for 5 h. The media in the wells were removed and the cells were then lysed in 30 μL of 1×Renilla luciferase lysis buffer (Promega, Madison, Wis.). To measure Renilla luciferase activity, five μL of the lysate was combined with 30 μL of benzyl-coelenterazine (Nanolight, Pinetop, Ariz.) solution in PBS (pH 7.4, 10 μg/mL). The sample protein concentration was determined by Dye Reagent Concentrate (Bio-Rad, Hercules, Calif.). The Renilla luciferase activity was normalized to protein content in each well and expressed as relative luciferase unit/μg protein (RLU/μg protein). The IC50 was derived from non-linear regression analysis of the RLU/μg protein-concentration curve in Prism 5.0 (La Jolla, Calif.).

KIX-KID = target: T1, KIX-KID (Homo sapiens, UniProt Q92793); assay: KIX-KID inhibition, split Renilla luciferase complementation (RLucC-KIX and KID-RLucN); type: binding; settings: 4° C., 24 h
T1 construct: made in house
Method: RLucC-KIX (15 ng) and KID-RLucN-containing cell lysates (0.5 mg) were mixed together in Renilla luciferase lysis buffer (Promega, Madison, Wis.) in the presence of different concentrations of compounds. The final volume of the incubation mixture is 30 μL. The mixture was incubated at 4° C. for 24 h. Then Renilla luciferase activity was measured by combining 5 μL of incubation mixture with 30 μL of coelenterazine solution in PBS (pH 7.4, 10 μg/mL).

T1 sequence (Q92793 587-666 limits assumed): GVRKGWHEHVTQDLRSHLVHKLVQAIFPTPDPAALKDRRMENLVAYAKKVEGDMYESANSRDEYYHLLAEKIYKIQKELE

## NCCCOc1cc2ccccc2cc1C(=O)NCCCOc1cc2ccccc2cc1C(=O)Nc1ccc(Cl)cc1O [Compound 4]
[1]
  GI50: 0.14 ± 0.029 µM
[2]; HEK 293T cells
  CREB-mediated gene transcription in HEK 293T cells (in words): inhibited
[2]; Homo sapiens, HEK-293T, 5 h, read-out: CREB reporter inhibition (IC50)
  IC50: 2.22 ± 0.38 µM
KIX-KID
  IC50: 2.54 ± 0.28 µM
